From the supplement of paper PMC10307832

Columns and labels:
Assay in all cases: relative viability (nuclei count vs DMSO), 5 days (fraction); higher = more cells survive
[1] = compound: Cc1ccc(C(=O)Nc2ccc(CN3CCN(C)CC3)c(C(F)(F)F)c2)cc1C#Cc1cnc2cccnn12 [Ponatinib] + Cc1cc(Nc2cc(N3CCN(C)CC3)nc(Sc3ccc(NC(=O)C4CC4)cc3)n2)n[nH]1 [Tozasertib] (partner 0.1 µM)
In short: (§1)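 Lung cancer cell lines in 1536-well plates got either a single drug or a fixed anchor-drug dose together with five library-drug doses (not always all listed) in √10 steps, by pin tool, on the day after seeding. Nuclei were counted after 5 days, and relative viability is the treated-to-vehicle ratio of nuclei counts. Values are medians of duplicate plates.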

[2] = compound: Cc1ccc(C(=O)Nc2ccc(CN3CCN(C)CC3)c(C(F)(F)F)c2)cc1C#Cc1cnc2cccnn12 [Ponatinib] + N=C(N)NC(=N)NCCc1ccccc1 [Phenformin] (partner 250 µM)
In short: as §1

[3] = compound: Cc1ccc(Nc2nccc(N(C)c3ccc4c(C)n(C)nc4c3)n2)cc1S(N)(=O)=O [Pazopanib] + CC(C)C[C@H](NC(=O)[C@H](Cc1ccccc1)NC(=O)c1cnccn1)B(O)O [Bortezomib] (partner 0.002 µM)
In short: as §1

[4] = compound: Cc1ccc(Nc2nccc(N(C)c3ccc4c(C)n(C)nc4c3)n2)cc1S(N)(=O)=O [Pazopanib] + CS(=O)(=O)CCNCc1ccc(-c2ccc3ncnc(Nc4ccc(OCc5cccc(F)c5)c(Cl)c4)c3c2)o1 [Lapatinib] (partner 2 µM)
In short: as §1

Cell Line	relative viability ([1]; first compound 0.002 µM)	relative viability ([1]; first compound 0.006325 µM)	relative viability ([1]; first compound 0.06325 µM)	relative viability ([1]; first compound 0.2 µM)	relative viability ([2]; first compound 0.002 µM)	relative viability ([2]; first compound 0.006325 µM)	relative viability ([2]; first compound 0.06325 µM)	relative viability ([2]; first compound 0.2 µM)	relative viability ([3]; first compound 0.01 µM)	relative viability ([3]; first compound 0.03162 µM)	relative viability ([3]; first compound 0.1 µM)	relative viability ([3]; first compound 0.3162 µM)	relative viability ([3]; first compound 1 µM)	relative viability ([4]; first compound 0.01 µM)	relative viability ([4]; first compound 0.03162 µM)	relative viability ([4]; first compound 0.1 µM)	relative viability ([4]; first compound 0.3162 µM)	relative viability ([4]; first compound 1 µM)
HCC-366	0.112	0.108	0.0686	0.0671	0.602	0.587	0.622	0.515	0.954	1.07	1.02	0.973	1.09	1.09	1.03	1.09	1.15	1.03
HCC-827	0.403	0.42	0.427	0.414	0.411	0.429	0.416	0.348	0.963	1.06	1.06	1.05	1.03	0.169	0.177	0.122	0.181	0.191
HOP-62	0.303	0.348	0.317	0.33	0.602	0.635	0.633	0.624	0.642	0.724	–	0.935	0.923	1.04	1.01	–	0.99	1.04
LC-2-ad	0.458	0.455	0.431	0.397	0.415	0.542	0.498	0.462	0.977	1.08	1.02	0.956	1.12	1.01	0.954	0.999	0.979	1.12
LCLC-97TM1	0.236	0.298	0.17	0.218	0.489	0.432	0.467	0.411	0.506	0.693	0.482	0.737	0.592	–	0.613	0.974	1.52	0.918
LOU-NH91	0.65	0.668	0.71	0.595	0.683	0.73	0.766	0.676	0.484	0.481	0.496	0.475	0.506	0.646	0.744	0.748	0.759	0.872
LU99A	0.227	0.293	0.251	0.263	0.823	0.873	0.744	0.859	0.913	1.18	1.18	1.25	1.25	0.727	0.978	0.992	1.12	1.07
LXF-289	0.205	0.262	0.21	0.148	0.513	0.545	0.525	0.445	0.998	1.02	0.993	0.91	0.956	0.908	0.935	0.902	0.909	0.897
NCI-H23	0.351	0.419	0.25	0.197	0.759	0.756	0.815	0.593	0.813	1.1	1.11	1.07	1.41	0.887	1.3	1.41	1.09	1.14
NCI-H322M	0.429	0.412	0.41	0.423	0.746	0.734	0.799	0.728	1.09	1.34	1.35	1.32	1.21	0.587	0.645	0.653	0.632	0.618
NCI-H460	0.407	0.526	0.19	0.0908	0.489	0.501	0.549	0.573	1.03	1.23	1.2	1.14	1.13	1.05	1.06	1.04	0.946	1.15
NCI-H520	0.45	0.419	0.397	0.372	0.392	0.552	0.291	0.18	–	0.612	0.73	0.744	0.737	–	0.96	0.766	0.859	0.921
NCI-H596	0.914	0.911	0.734	0.743	0.621	0.82	0.7	0.568	0.872	1.14	0.962	1.16	1.02	0.931	1.03	1.03	0.981	1.17
NCI-H647	0.318	0.224	0.288	0.259	0.413	0.626	0.699	0.42	0.822	0.93	0.963	1.07	1.05	0.87	1.21	1.17	1.08	1.16
NCI-H650	0.685	0.707	0.712	0.618	0.407	0.426	0.438	0.419	0.696	0.861	0.804	0.935	0.812	0.814	1.08	0.933	0.909	1.36
NCI-H661	0.36	0.345	0.351	0.368	0.277	0.258	0.278	0.264	0.823	0.853	0.786	0.631	0.873	0.538	0.629	0.476	0.431	0.648
NCI-H727	0.607	0.593	0.531	0.669	0.537	0.507	0.605	0.532	0.791	0.938	0.98	0.928	1.11	0.79	0.988	0.801	0.878	0.891
NCI-H838	0.275	0.271	0.286	0.256	0.567	0.715	0.527	0.442	0.898	0.883	0.927	0.87	1.2	0.961	1.09	0.97	1.02	1.13

Cell Line	relative viability ([1]; first compound 0.002 µM)	relative viability ([1]; first compound 0.006325 µM)	relative viability ([1]; first compound 0.06325 µM)	relative viability ([1]; first compound 0.2 µM)	relative viability ([2]; first compound 0.002 µM)	relative viability ([2]; first compound 0.006325 µM)	relative viability ([2]; first compound 0.06325 µM)	relative viability ([2]; first compound 0.2 µM)	relative viability ([3]; first compound 0.01 µM)	relative viability ([3]; first compound 0.03162 µM)	relative viability ([3]; first compound 0.1 µM)	relative viability ([3]; first compound 0.3162 µM)	relative viability ([3]; first compound 1 µM)	relative viability ([4]; first compound 0.01 µM)	relative viability ([4]; first compound 0.03162 µM)	relative viability ([4]; first compound 0.1 µM)	relative viability ([4]; first compound 0.3162 µM)	relative viability ([4]; first compound 1 µM)
NCI-H1355	0.566	0.542	0.582	0.455	0.44	0.467	0.491	0.452	–	1.17	1.21	1.21	1.35	–	0.845	0.93	0.989	1.17
NCI-H1437	0.363	0.419	0.411	0.393	0.293	0.334	0.322	0.302	0.617	0.537	0.428	0.518	0.583	0.919	0.877	0.823	0.815	0.785
NCI-H1650	0.323	0.411	0.348	0.304	0.454	0.521	0.389	0.37	0.204	0.212	0.235	0.191	0.21	0.693	0.868	0.718	0.82	0.895
NCI-H1651	0.685	0.662	0.563	0.531	0.301	0.373	0.299	0.265	0.753	0.954	0.965	0.97	0.916	0.76	0.876	0.885	0.857	1.12
NCI-H1666	0.707	0.627	0.669	0.548	0.564	0.538	0.564	0.585	0.707	0.829	0.77	1.01	1.35	0.644	0.677	0.718	0.763	0.972
NCI-H1734	0.267	0.293	0.217	0.26	0.395	0.393	0.347	0.303	0.846	0.897	1.01	0.996	0.935	0.837	0.777	1.13	1.18	1.09
NCI-H1755	0.607	0.59	0.54	0.547	0.561	0.599	0.614	0.565	0.883	0.973	0.966	0.928	1.04	0.943	0.993	1.02	1.02	1.02
NCI-H1915	0.396	0.487	0.313	0.366	0.332	0.363	0.371	0.356	0.936	0.963	0.983	0.972	0.884	0.898	1.03	1.01	0.976	0.941
NCI-H1975	0.677	0.774	0.275	0.196	0.365	0.395	0.439	0.398	0.356	0.346	0.461	0.464	0.448	0.798	0.822	0.875	0.873	0.907
NCI-H1993	0.639	0.635	0.582	0.555	0.57	0.512	0.532	0.508	0.758	1.02	1.02	1.2	1.28	0.69	0.853	0.573	0.797	0.927
NCI-H2009	0.713	0.726	0.848	0.749	0.426	0.432	0.522	0.467	0.892	1.11	0.876	0.955	0.906	0.961	0.946	0.796	0.883	0.838
NCI-H2023	0.381	0.336	0.246	0.194	0.397	0.416	0.425	0.315	0.719	0.945	0.877	0.964	1.42	0.509	0.806	0.73	0.791	1.35
NCI-H2085	0.722	0.849	0.662	0.576	0.649	0.708	0.682	0.641	1.04	1.09	1.01	1.02	1.13	0.511	0.794	0.762	0.785	0.853
NCI-H2087	0.259	0.237	0.21	0.155	0.517	0.471	0.493	0.439	0.979	0.909	0.804	0.798	0.879	1.09	0.988	0.99	1.15	1.02
NCI-H2126	0.868	0.836	0.954	0.754	0.509	0.544	0.558	0.543	1.05	1.14	1.11	1.07	1.09	0.611	0.713	0.81	0.715	0.821
NCI-H2228	0.225	0.286	0.161	0.234	0.356	0.356	0.342	0.357	0.954	1.07	0.866	0.926	0.834	1.32	1.15	0.979	1.08	0.929
NCI-H2347	0.473	0.669	0.417	0.51	0.34	0.393	0.38	0.34	–	–	1.23	0.95	0.997	0.86	0.971	1.08	0.989	1.02
NCI-H2405	0.728	0.809	0.711	0.681	0.359	0.44	0.386	0.329	0.925	0.981	0.997	0.982	0.982	0.922	1.1	1.06	1.31	1.2
